Test: Storage/thermal stability of the solid form
Type: physicochemical
Settings: stable for any period of time, no test described

SMILES	temperature below which the solid is stable
CN(C)[C@@H](CCOc1cccc2ccccc12)c1ccccc1 (single isomer, unassigned) [solid dapoxetine S enantiomer]	below 60 °C
CN(C)[C@@H](CCOc1cccc2ccccc12)c1ccccc1 (racemic) [solid racemic dapoxetine]	below 45 °C
